Test results: US11739070B2, “C5A receptor modulators” (IDORSIA PHARMACEUTICALS LTD, priority 2018, dated 2023)
pIC50: −log10 of the molar value.

Molecular target: T1, C5AR1 (Homo sapiens, UniProt P21730)
T1 construct: host or cells: CHO-K1
T1 sequence (P21730 1-350): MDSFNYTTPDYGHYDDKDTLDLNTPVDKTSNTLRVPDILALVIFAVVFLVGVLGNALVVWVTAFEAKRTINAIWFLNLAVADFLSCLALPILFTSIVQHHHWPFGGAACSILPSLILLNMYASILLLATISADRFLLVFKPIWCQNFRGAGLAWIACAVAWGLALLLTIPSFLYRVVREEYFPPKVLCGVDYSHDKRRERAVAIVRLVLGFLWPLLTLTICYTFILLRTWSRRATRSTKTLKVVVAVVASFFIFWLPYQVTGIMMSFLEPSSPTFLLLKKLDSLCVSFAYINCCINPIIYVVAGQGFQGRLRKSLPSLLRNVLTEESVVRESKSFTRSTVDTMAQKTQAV
Test: hC5a DISCO IC50 assay (PathHunter beta-arrestin, antagonist mode)
Assay type: cell-based
Settings: CHO-K1 C5AR1 beta-arrestin cell line; antagonist vs 1-10 nM C5a agonist; geometric mean values; read-out: C5aR IC50
Method in brief: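 Antagonist added first, then 1-10 nM C5a agonist; cells incubated 1.5 h at 37 °C. Beta-arrestin signal developed with PathHunter detection reagent, 45 min at RT. IC50 in nmol/l from serial antagonist dilutions, reported as geometric mean of several measurements.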

Compound | pIC50
CCOC(=O)C1CN(C(=O)OC(C)(C)C)CCC1n1c(=O)n(Cc2ccccc2C(F)(F)F)c2c(OC)cccc21 (stereo not shown) [Example 164, 4-[4-Methoxy-2-oxo-3-(2-trifluoromethyl-benzyl)-2,3-dihydro-benzoimidazol-1-yl]-piperidine-1,3-dicarboxylic acid 1-tert-butyl ester 3-ethyl ester] | 6.75
COc1nccnc1Cn1c(=O)n(C2CCN(c3c(C)cccc3F)CC2)c2cccc(OC)c21 [Example 170, 1-[1-(2-Fluoro-6-methyl-phenyl)-piperidin-4-yl]-4-methoxy-3-(3-methoxy-pyrazin-2-ylmethyl)-1,3-dihydro-benzoimidazol-2-one] | 7.35
COc1cc(C)nc2c1n(Cc1ccccc1C(F)(F)F)c(=O)n2[C@@H]1CCN(c2c(C)cccc2F)C1 [Example 171, 3-[(R)-1-(2-Fluoro-6-methyl-phenyl)-pyrrolidin-3-yl]-7-methoxy-5-methyl-1-(2-trifluoromethyl-benzyl)-1,3-dihydro-imidazo[4,5-b]pyridin-2-one] | 7.19
COc1cccc2c1n(Cc1nnc(Cl)cc1OC(C)C)c(=O)n2[C@@H]1CCN(c2c(C)cccc2F)C1 [Example 172, 3-(6-Chloro-4-isopropoxy-pyridazin-3-ylmethyl)-1-[(R)-1-(2-fluoro-6-methyl-phenyl)-pyrrolidin-3-yl]-4-methoxy-1,3-dihydro-benzoimidazol-2-one] | 6.56
COc1cccc2c1n(Cc1nnccc1OC(C)C)c(=O)n2[C@@H]1CCN(c2c(C)cccc2F)C1 [Example 173, 1-[(R)-1-(2-Fluoro-6-methyl-phenyl)-pyrrolidin-3-yl]-3-(4-isopropoxy-pyridazin-3-ylmethyl)-4-methoxy-1,3-dihydro-benzoimidazol-2-one] | 6.97
COc1cccc2c1n(Cc1nnccc1C)c(=O)n2[C@@H]1CCN(c2c(C)cccc2F)C1 [Example 174, 1-[(R)-1-(2-Fluoro-6-methyl-phenyl)-pyrrolidin-3-yl]-4-methoxy-3-(4-methyl-pyridazin-3-ylmethyl)-1,3-dihydro-benzoimidazol-2-one] | 6.26
COc1ncncc1Cn1c(=O)n([C@@H]2CCN(c3c(C)cccc3F)C2)c2cccc(OC)c21 [Example 175, 1-[(R)-1-(2-Fluoro-6-methyl-phenyl)-pyrrolidin-3-yl]-4-methoxy-3-(4-methoxy-pyrimidin-5-ylmethyl)-1,3-dihydro-benzoimidazol-2-one] | 6.66
COc1cccc2c1n(Cc1cncnc1C(F)(F)F)c(=O)n2[C@@H]1CCN(c2c(C)cccc2F)C1 [Example 176, 1-[(R)-1-(2-Fluoro-6-methyl-phenyl)-pyrrolidin-3-yl]-4-methoxy-3-(4-trifluoromethyl-pyrimidin-5-ylmethyl)-1,3-dihydro-benzoimidazol-2-one] | 7.32
COc1cccc2c1n(Cc1nccnc1OC(C)C)c(=O)n2C1CCN(c2c(C)cccc2F)CC1 [Example 178, 1-[1-(2-Fluoro-6-methyl-phenyl)-piperidin-4-yl]-3-(3-isopropoxy-pyrazin-2-ylmethyl)-4-methoxy-1,3-dihydro-benzoimidazol-2-one] | 7.31
COc1cccc2c1n(Cc1ccccc1C(F)(F)F)c(=O)n2C1CCCN(C(=O)OC(C)(C)C)CC1 (stereo not shown) [Example 179, 4-[4-Methoxy-2-oxo-3-(2-trifluoromethyl-benzyl)-2,3-dihydro-benzoimidazol-1-yl]-azepane-1-carboxylic acid tert-butyl ester] | 6.91
COc1cccc2c1n(Cc1ccccc1C(F)(F)F)c(=O)n2C1CCCN(c2c(C)cccc2F)CC1 (stereo not shown) [Example 184, 1-[1-(2-Fluoro-6-methyl-phenyl)-azepan-4-yl]-4-methoxy-3-(2-trifluoromethyl-benzyl)-1,3-dihydro-benzoimidazol-2-one] | 7.44
COc1cccc2c1n(Cc1ccccc1C(F)(F)F)c(=O)n2C1CCCN(c2c(C)cccc2C)CC1 (stereo not shown) [Example 185, 1-[1-(2,6-Dimethyl-phenyl)-azepan-4-yl]-4-methoxy-3-(2-trifluoromethyl-benzyl)-1,3-dihydro-benzoimidazol-2-one] | 7.44
COc1cccc2c1n(Cc1ccccc1C(F)(F)F)c(=O)n2C1CC2CC1CN2C(=O)OC(C)(C)C (stereo not shown) [Example 188, 5-[4-Methoxy-2-oxo-3-(2-trifluoromethyl-benzyl)-2,3-dihydro-benzoimidazol-1-yl]-2-aza-bicyclo[2.2.1]heptane-2-carboxylic acid tert-butyl ester] | 6.50
COc1cccc2c1n(Cc1ccccc1C(F)(F)F)c(=O)n2C1CC2CC1CN2c1c(C)cccc1F (stereo not shown) [Example 190, 1-[2-(2-Fluoro-6-methyl-phenyl)-2-aza-bicyclo[2.2.1]hept-5-yl]-4-methoxy-3-(2-trifluoromethyl-benzyl)-1,3-dihydro-benzoimidazol-2-one] | 6.93
COc1cccc2c1n(Cc1ccccc1C(F)(F)F)c(=O)n2C1C2CC1CN(C(=O)OC(C)(C)C)C2 (stereo not shown) [Example 191, 6-[4-Methoxy-2-oxo-3-(2-trifluoromethyl-benzyl)-2,3-dihydro-benzoimidazol-1-yl]-3-aza-bicyclo[3.1.1]heptane-3-carboxylic acid tert-butyl ester] | 6.94

Now those with a higher pIC50, led by results:

pIC50 | Compound
8.22 | COc1cccc2c1n(Cc1ccccc1OC(C)C)c(=O)n2[C@@H]1CCN(c2c(C)cccc2F)C1 [Example 165, 1-[(R)-1-(2-Fluoro-6-methyl-phenyl)-pyrrolidin-3-yl]-3-(2-isopropoxy-benzyl)-4-methoxy-1,3-dihydro-benzoimidazol-2-one]
7.77 | COc1cccc2c1n(Cc1ccccc1OC(C)C)c(=O)n2C1CCN(c2c(C)cccc2F)CC1 [Example 166, 1-[1-(2-Fluoro-6-methyl-phenyl)-piperidin-4-yl]-3-(2-isopropoxy-benzyl)-4-methoxy-1,3-dihydro-benzoimidazol-2-one]
8.22 | COc1cccc2c1n(Cc1nccnc1C(F)(F)F)c(=O)n2[C@@H]1CCN(c2c(C)cccc2F)C1 [Example 167, 1-[(R)-1-(2-Fluoro-6-methyl-phenyl)-pyrrolidin-3-yl]-4-methoxy-3-(3-trifluoromethyl-pyrazin-2-ylmethyl)-1,3-dihydro-benzoimidazol-2-one]
8.00 | COc1cccc2c1n(Cc1nccnc1C(F)(F)F)c(=O)n2C1CCN(c2c(C)cccc2F)CC1 [Example 168, 1-[1-(2-Fluoro-6-methyl-phenyl)-piperidin-4-yl]-4-methoxy-3-(3-trifluoromethyl-pyrazin-2-ylmethyl)-1,3-dihydro-benzoimidazol-2-one]
7.77 | COc1nccnc1Cn1c(=O)n([C@@H]2CCN(c3c(C)cccc3F)C2)c2cccc(OC)c21 [Example 169, 1-[(R)-1-(2-Fluoro-6-methyl-phenyl)-pyrrolidin-3-yl]-4-methoxy-3-(3-methoxy-pyrazin-2-ylmethyl)-1,3-dihydro-benzoimidazol-2-one]
7.62 | COc1cccc2c1n(Cc1nccnc1OC(C)C)c(=O)n2[C@@H]1CCN(c2c(C)cccc2F)C1 [Example 177, 1-[(R)-1-(2-Fluoro-6-methyl-phenyl)-pyrrolidin-3-yl]-3-(3-isopropoxy-pyrazin-2-ylmethyl)-4-methoxy-1,3-dihydro-benzoimidazol-2-one]
8.05 | COc1cccc2c1n(Cc1cnccc1C(C)C)c(=O)n2[C@@H]1CCN(c2c(C)cccc2F)C1 [Example 180, 1-[(R)-1-(2-Fluoro-6-methyl-phenyl)-pyrrolidin-3-yl]-3-(4-isopropyl-pyridin-3-ylmethyl)-4-methoxy-1,3-dihydro-benzoimidazol-2-one]
7.66 | COc1cccc2c1n(Cc1cnccc1C(C)C)c(=O)n2C1CCN(c2c(C)cccc2F)CC1 [Example 181, 1-[1-(2-Fluoro-6-methyl-phenyl)-piperidin-4-yl]-3-(4-isopropyl-pyridin-3-ylmethyl)-4-methoxy-1,3-dihydro-benzoimidazol-2-one]
8.05 | COc1cccc2c1n(Cc1ncccc1OC(C)C)c(=O)n2[C@@H]1CCN(c2c(C)cccc2F)C1 [Example 182, 1-[(R)-1-(2-Fluoro-6-methyl-phenyl)-pyrrolidin-3-yl]-3-(3-isopropoxy-pyridin-2-ylmethyl)-4-methoxy-1,3-dihydro-benzoimidazol-2-one]
7.85 | COc1cccc2c1n(Cc1ncccc1OC(C)C)c(=O)n2C1CCN(c2c(C)cccc2F)CC1 [Example 183, 1-[1-(2-Fluoro-6-methyl-phenyl)-piperidin-4-yl]-3-(3-isopropoxy-pyridin-2-ylmethyl)-4-methoxy-1,3-dihydro-benzoimidazol-2-one]
7.85 | COc1cccc2c1n(Cc1cncnc1C(C)C)c(=O)n2[C@@H]1CCN(c2c(C)cccc2F)C1 [Example 186, 1-[(R)-1-(2-Fluoro-6-methyl-phenyl)-pyrrolidin-3-yl]-3-(4-isopropyl-pyrimidin-5-ylmethyl)-4-methoxy-1,3-dihydro-benzoimidazol-2-one]
7.59 | COc1cccc2c1n(Cc1nccnc1C(C)C)c(=O)n2C1CCN(c2c(C)cccc2F)CC1 [Example 187, 1-[1-(2-Fluoro-6-methyl-phenyl)-piperidin-4-yl]-3-(3-isopropyl-pyrazin-2-ylmethyl)-4-methoxy-1,3-dihydro-benzoimidazol-2-one]
7.89 | COc1cccc2c1n(Cc1nccnc1C(C)C)c(=O)n2[C@@H]1CCN(c2c(C)cccc2F)C1 [Example 189, 1-[(R)-1-(2-Fluoro-6-methyl-phenyl)-pyrrolidin-3-yl]-3-(3-isopropyl-pyrazin-2-ylmethyl)-4-methoxy-1,3-dihydro-benzoimidazol-2-one]
